Legend:
[1] = biological target: Phosphatidylinositol 4,5-bisphosphate 3-kinase catalytic subunit alpha isoform (Homo sapiens) (UniProt P42336); conditions: Compound concentration 1000.0 nM
[2] = biological target: Mitogen-activated protein kinase 3 (Homo sapiens) (UniProt P27361); conditions: Compound concentration 1000.0 nM
[3] = biological target: Cyclin-dependent kinase 5 (Homo sapiens) (UniProt Q00535); conditions: Compound concentration 1000.0 nM
[4] = biological target: Serine/threonine-protein kinase 36 (Homo sapiens) (UniProt Q9NRP7); conditions: Compound concentration 1000.0 nM
[5] = test system: Mast/stem cell growth factor receptor Kit (Homo sapiens), P10721 [A829P]; conditions: Compound concentration 1000.0 nM
[6] = test system: Receptor-type tyrosine-protein kinase FLT3 (Homo sapiens), P36888 [UNDEFINED MUTATION]; conditions: Compound concentration 1000.0 nM
[7] = biological target: Tyrosine-protein kinase FRK (Homo sapiens) (UniProt P42685); conditions: Compound concentration 1000.0 nM
[8] = biological target: Calcium/calmodulin-dependent protein kinase type 1D (Homo sapiens) (UniProt Q8IU85); conditions: Compound concentration 1000.0 nM
[9] = biological target: Serine/threonine-protein kinase DCLK1 (Homo sapiens) (UniProt O15075); conditions: Compound concentration 1000.0 nM
[10] = biological target: Cytoplasmic tyrosine-protein kinase BMX (Homo sapiens) (UniProt P51813); conditions: Compound concentration 1000.0 nM
[11] = biological target: Cyclin-dependent kinase-like 3 (Homo sapiens) (UniProt Q8IVW4); conditions: Compound concentration 1000.0 nM
[12] = biological target: Calcium/calmodulin-dependent protein kinase type 1B (Homo sapiens) (UniProt Q6P2M8); conditions: Compound concentration 1000.0 nM
[13] = biological target: Mitogen-activated protein kinase kinase kinase 4 (Homo sapiens) (UniProt Q9Y6R4); conditions: Compound concentration 1000.0 nM
[14] = biological target: Mitogen-activated protein kinase kinase kinase 3 (Homo sapiens) (UniProt Q99759); conditions: Compound concentration 1000.0 nM
[15] = biological target: Cyclin-dependent kinase 16 (Homo sapiens) (UniProt Q00536); conditions: Compound concentration 1000.0 nM
[16] = biological target: Activin receptor type-2A (Homo sapiens) (UniProt P27037); conditions: Compound concentration 1000.0 nM
[17] = biological target: BDNF/NT-3 growth factors receptor (Homo sapiens) (UniProt Q16620); conditions: Compound concentration 1000.0 nM
[18] = biological target: Alpha-2C adrenergic receptor (Homo sapiens) (UniProt P18825); conditions: Compound concentration 10.0 uM
[19] = biological target: Tyrosine-protein kinase SYK (Homo sapiens) (UniProt P43405); conditions: Compound concentration 1000.0 nM
[20] = biological target: Rho-associated protein kinase 1 (Homo sapiens) (UniProt Q13464); conditions: Compound concentration 1000.0 nM
[21] = test system: Phosphatidylinositol 4,5-bisphosphate 3-kinase catalytic subunit alpha isoform (Homo sapiens), P42336 [H1047L]; conditions: Compound concentration 1000.0 nM
[22] = biological target: Ribosomal protein S6 kinase alpha-3 (Homo sapiens) (UniProt P51812); conditions: Compound concentration 1000.0 nM
[23] = test system: Receptor-type tyrosine-protein kinase FLT3 (Homo sapiens), P36888 [UNDEFINED MUTATION]; conditions: Compound concentration 1000.0 nM; remark: listed apart in the source
[24] = biological target: Serine/threonine-protein kinase VRK2 (Homo sapiens) (UniProt Q86Y07); conditions: Compound concentration 1000.0 nM
[25] = biological target: Sodium-dependent noradrenaline transporter (Homo sapiens) (UniProt P23975); conditions: Compound concentration 10.0 uM
[26] = biological target: Serine/threonine-protein kinase DCLK3 (Homo sapiens) (UniProt Q9C098); conditions: Compound concentration 1000.0 nM
[27] = biological target: Cyclin-dependent kinase 11B (Homo sapiens) (UniProt P21127); conditions: Compound concentration 1000.0 nM
[28] = biological target: T1, Muscarinic acetylcholine receptor M2 (Homo sapiens) (UniProt P08172); conditions: Compound concentration 10.0 uM
T1 sequence (whole entry): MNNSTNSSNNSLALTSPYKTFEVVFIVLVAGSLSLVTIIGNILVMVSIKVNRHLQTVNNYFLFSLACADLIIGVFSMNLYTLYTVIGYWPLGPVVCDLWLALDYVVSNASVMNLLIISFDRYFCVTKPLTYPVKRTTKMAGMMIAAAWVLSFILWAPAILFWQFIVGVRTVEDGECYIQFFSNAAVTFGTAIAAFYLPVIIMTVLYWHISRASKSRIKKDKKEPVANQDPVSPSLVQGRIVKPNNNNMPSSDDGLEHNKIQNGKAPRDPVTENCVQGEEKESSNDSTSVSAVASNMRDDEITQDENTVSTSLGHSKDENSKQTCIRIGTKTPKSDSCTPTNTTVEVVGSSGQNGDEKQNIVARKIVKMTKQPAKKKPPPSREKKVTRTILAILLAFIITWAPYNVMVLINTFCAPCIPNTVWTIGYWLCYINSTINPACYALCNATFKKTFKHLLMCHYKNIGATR

[29] = biological target: Serine/threonine-protein kinase 32A (Homo sapiens) (UniProt Q8WU08); conditions: Compound concentration 1000.0 nM
[30] = biological target: Inhibitor of nuclear factor kappa-B kinase subunit beta (Homo sapiens) (UniProt O14920); conditions: Compound concentration 1000.0 nM
[31] = biological target: Serine/threonine-protein kinase Nek6 (Homo sapiens) (UniProt Q9HC98); conditions: Compound concentration 1000.0 nM
[32] = biological target: cAMP-dependent protein kinase catalytic subunit beta (Homo sapiens) (UniProt P22694); conditions: Compound concentration 1000.0 nM
[33] = biological target: TGF-beta receptor type-1 (Homo sapiens) (UniProt P36897); conditions: Compound concentration 1000.0 nM
[34] = biological target: Serine/threonine-protein kinase RIO2 (Homo sapiens) (UniProt Q9BVS4); conditions: Compound concentration 1000.0 nM
[35] = biological target: Proto-oncogene tyrosine-protein kinase ROS (Homo sapiens) (UniProt P08922); conditions: Compound concentration 1000.0 nM
[36] = biological target: Proto-oncogene tyrosine-protein kinase receptor Ret (Homo sapiens) (UniProt P07949); conditions: Compound concentration 1000.0 nM
[37] = biological target: Non-receptor tyrosine-protein kinase TYK2 (Homo sapiens) (UniProt P29597); conditions: Compound concentration 1000.0 nM
[38] = biological target: Dual specificity protein kinase CLK4 (Homo sapiens) (UniProt Q9HAZ1); conditions: Compound concentration 1000.0 nM

Receptor-type tyrosine-protein kinase FLT3 (Homo sapiens), P36888 [UNDEFINED MUTATION], sequence (P36888 whole entry, looked up, change not shown): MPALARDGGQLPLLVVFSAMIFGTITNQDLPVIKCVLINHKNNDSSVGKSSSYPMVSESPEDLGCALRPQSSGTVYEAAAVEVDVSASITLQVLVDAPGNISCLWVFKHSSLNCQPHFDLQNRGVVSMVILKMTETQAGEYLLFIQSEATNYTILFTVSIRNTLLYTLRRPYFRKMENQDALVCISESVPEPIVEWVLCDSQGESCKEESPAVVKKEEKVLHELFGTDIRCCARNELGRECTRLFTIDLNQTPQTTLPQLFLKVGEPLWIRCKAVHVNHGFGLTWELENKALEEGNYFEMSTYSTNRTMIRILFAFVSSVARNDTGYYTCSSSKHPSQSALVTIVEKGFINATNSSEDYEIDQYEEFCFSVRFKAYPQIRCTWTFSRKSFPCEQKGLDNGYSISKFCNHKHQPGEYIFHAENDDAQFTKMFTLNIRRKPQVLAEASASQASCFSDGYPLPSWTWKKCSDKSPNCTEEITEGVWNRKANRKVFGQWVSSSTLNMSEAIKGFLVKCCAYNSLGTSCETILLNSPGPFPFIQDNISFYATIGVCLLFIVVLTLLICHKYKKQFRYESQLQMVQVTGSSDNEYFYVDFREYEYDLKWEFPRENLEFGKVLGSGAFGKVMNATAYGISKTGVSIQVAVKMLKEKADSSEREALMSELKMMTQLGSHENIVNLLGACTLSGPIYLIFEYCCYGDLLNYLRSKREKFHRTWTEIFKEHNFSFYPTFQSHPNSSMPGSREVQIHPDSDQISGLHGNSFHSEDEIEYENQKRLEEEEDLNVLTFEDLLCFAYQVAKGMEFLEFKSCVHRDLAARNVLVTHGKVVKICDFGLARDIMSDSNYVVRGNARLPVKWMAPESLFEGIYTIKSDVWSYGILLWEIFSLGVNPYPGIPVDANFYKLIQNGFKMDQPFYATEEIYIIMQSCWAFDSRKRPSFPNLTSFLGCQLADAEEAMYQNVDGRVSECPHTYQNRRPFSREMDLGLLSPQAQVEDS
Phosphatidylinositol 4,5-bisphosphate 3-kinase catalytic subunit alpha isoform (Homo sapiens), sequence (P42336 whole entry, canonical isoform): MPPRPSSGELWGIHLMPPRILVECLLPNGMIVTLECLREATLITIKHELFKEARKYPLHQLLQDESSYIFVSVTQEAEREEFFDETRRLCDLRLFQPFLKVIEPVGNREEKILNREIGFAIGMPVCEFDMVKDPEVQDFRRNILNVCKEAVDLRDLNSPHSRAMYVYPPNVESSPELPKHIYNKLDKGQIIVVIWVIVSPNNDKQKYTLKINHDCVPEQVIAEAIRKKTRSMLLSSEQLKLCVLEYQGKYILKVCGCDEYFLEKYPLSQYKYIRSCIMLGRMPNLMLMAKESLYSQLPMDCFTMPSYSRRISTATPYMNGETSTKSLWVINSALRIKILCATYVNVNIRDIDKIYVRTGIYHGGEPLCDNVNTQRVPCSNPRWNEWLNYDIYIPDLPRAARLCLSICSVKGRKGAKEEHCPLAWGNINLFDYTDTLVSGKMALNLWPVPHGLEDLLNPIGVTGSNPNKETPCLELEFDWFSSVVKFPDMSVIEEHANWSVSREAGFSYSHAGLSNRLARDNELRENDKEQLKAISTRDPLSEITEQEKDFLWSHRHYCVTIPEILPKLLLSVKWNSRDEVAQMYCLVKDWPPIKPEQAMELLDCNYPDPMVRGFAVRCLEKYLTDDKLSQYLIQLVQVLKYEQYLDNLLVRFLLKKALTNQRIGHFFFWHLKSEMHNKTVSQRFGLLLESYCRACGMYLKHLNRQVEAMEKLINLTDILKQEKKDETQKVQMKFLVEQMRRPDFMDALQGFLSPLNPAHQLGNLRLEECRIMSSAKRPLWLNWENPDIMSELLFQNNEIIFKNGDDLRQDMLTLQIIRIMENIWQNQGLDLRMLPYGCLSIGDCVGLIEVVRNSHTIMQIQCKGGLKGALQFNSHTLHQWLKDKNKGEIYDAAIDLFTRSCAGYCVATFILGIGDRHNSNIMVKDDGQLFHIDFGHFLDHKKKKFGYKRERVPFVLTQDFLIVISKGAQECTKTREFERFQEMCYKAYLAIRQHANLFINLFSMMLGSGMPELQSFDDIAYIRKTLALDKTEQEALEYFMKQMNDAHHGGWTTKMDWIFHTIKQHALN
Calcium/calmodulin-dependent protein kinase type 1B (Homo sapiens), sequence (Q6P2M8 whole entry): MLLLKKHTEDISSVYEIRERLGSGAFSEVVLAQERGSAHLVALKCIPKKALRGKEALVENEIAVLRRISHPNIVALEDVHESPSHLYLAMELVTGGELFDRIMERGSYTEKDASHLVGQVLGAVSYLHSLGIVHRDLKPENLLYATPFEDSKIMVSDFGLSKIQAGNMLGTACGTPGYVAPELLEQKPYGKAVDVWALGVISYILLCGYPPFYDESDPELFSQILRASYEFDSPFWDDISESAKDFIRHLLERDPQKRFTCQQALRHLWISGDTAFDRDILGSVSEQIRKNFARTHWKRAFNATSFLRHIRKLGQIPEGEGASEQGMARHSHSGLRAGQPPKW
Serine/threonine-protein kinase Nek6 (Homo sapiens), sequence (Q9HC98 whole entry): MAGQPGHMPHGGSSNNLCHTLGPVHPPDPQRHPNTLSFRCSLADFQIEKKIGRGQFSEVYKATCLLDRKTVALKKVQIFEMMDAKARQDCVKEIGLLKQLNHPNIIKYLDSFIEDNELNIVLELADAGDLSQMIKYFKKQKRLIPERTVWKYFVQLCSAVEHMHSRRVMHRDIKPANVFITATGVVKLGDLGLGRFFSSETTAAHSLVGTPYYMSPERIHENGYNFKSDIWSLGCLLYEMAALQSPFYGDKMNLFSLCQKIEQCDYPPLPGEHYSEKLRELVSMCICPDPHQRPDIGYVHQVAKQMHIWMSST
Serine/threonine-protein kinase RIO2 (Homo sapiens), sequence (Q9BVS4 whole entry, looked up): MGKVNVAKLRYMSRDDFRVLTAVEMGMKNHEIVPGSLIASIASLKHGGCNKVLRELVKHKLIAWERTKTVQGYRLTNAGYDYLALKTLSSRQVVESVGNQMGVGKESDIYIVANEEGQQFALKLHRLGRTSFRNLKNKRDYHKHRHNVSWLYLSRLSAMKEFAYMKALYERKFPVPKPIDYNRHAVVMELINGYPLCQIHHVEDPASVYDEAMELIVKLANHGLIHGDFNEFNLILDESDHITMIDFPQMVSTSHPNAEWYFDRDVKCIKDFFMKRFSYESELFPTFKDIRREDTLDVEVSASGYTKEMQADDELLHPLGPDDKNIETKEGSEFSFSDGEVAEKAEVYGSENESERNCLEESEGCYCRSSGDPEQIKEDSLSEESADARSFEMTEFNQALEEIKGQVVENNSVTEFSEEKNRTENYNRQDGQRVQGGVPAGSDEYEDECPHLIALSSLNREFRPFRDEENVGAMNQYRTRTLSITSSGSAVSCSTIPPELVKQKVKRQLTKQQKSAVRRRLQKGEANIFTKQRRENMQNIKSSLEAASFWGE
Phosphatidylinositol 4,5-bisphosphate 3-kinase catalytic subunit alpha isoform (Homo sapiens), P42336 [H1047L], sequence (P42336 whole entry H1047L, canonical isoform): as the sequence (P42336 whole entry, canonical isoform) above, with H1047L counted along it
Serine/threonine-protein kinase VRK2 (Homo sapiens), sequence (Q86Y07 whole entry): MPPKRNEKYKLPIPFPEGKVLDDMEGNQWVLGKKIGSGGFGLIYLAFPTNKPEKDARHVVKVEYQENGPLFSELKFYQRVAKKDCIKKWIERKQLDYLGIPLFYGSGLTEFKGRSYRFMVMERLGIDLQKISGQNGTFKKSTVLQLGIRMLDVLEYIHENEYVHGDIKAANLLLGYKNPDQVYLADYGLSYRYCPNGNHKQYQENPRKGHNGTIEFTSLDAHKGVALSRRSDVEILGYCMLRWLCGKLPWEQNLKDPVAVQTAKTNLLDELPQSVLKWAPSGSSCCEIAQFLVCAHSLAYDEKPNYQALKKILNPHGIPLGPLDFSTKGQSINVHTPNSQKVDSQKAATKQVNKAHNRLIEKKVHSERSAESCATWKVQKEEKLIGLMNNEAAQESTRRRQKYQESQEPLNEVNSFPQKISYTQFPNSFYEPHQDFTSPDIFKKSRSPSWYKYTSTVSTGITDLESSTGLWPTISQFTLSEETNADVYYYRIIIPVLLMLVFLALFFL
Serine/threonine-protein kinase 32A (Homo sapiens), sequence (Q8WU08 whole entry): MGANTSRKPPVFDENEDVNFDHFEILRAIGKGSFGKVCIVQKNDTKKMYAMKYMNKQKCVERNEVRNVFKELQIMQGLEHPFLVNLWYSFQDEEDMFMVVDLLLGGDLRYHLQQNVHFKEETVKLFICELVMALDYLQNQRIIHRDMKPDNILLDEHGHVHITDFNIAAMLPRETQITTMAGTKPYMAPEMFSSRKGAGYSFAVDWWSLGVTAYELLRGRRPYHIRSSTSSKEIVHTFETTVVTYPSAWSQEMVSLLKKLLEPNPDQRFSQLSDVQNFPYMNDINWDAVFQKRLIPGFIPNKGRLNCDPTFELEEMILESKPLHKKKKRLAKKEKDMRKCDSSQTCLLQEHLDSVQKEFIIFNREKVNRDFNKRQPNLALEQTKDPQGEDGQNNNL
Sodium-dependent noradrenaline transporter (Homo sapiens), sequence (P23975 whole entry): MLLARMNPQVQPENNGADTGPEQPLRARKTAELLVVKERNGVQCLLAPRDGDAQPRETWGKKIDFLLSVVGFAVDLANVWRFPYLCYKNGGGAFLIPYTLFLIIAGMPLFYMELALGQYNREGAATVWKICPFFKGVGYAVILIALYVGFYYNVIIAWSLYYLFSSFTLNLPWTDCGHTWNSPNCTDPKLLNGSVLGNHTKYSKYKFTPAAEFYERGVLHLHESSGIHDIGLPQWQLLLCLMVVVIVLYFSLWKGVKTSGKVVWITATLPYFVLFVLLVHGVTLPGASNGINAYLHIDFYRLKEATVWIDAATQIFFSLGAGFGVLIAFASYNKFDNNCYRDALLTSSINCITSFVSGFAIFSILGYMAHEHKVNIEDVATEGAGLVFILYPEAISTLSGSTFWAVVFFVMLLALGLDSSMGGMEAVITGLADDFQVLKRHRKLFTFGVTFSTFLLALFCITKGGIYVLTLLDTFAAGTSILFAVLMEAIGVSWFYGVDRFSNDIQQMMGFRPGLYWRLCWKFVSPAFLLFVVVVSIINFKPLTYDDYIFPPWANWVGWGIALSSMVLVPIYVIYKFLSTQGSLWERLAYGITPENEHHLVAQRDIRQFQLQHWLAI

CN(C)CC#Cc1ccc(OCCCc2sc(N3CCc4cccc(C(=O)Nc5nc6ccccc6s5)c4C3)nc2C(=O)O)c(F)c1 [A-1155463]
inactive: residual activity [1] 89% | residual activity [2] 96% | residual activity [3] 100% | residual activity [4] 99% | residual activity [5] 100% | residual activity [6] 100% | residual activity [7] 96% | residual activity [8] 90% | residual activity [9] 72% | residual activity [10] 82% | residual activity [11] 100% | residual activity [12] 100% | residual activity [13] 100% | residual activity [14] 90% | residual activity [15] 100% | residual activity [16] 94% | residual activity [17] 100% | inhibition [18] 10.8% | residual activity [19] 100% | residual activity [20] 100% | residual activity [21] 68% | residual activity [22] 97% | residual activity [23] 97% | residual activity [24] 100% | inhibition [25] 42.9% | residual activity [26] 100% | residual activity [27] 93% | inhibition [28] 34.7% | residual activity [29] 100% | residual activity [30] 72% | residual activity [31] 100% | residual activity [32] 100% | residual activity [33] 100% | residual activity [34] 100% | residual activity [35] 93% | residual activity [36] 100% | residual activity [37] 75% | residual activity [38] 74%

— ChEMBL document CHEMBL4507311, “Data for DCP probe A-1155463” (2021)
